*1 amine or outer side, *2 acyl side, *3 side chain or, on linkers, in order; H or OH if unused. Where a SMILES comes first, the peptide text is derived from it. Side-chain parts run from the residue outwards. [ ]: non-standard residue; d: D form. The star is where a group is joined. Isobutyryl(2-(3-CN-5-F-Ph)) = CC(C)(C(=O)*)c1cc(F)cc(C#N)c1; C20 diacid = O=C(O)CCCCCCCCCCCCCCCCCCC(=O)*; X75 = C[C@@](Cc1nn[nH]n1)(N[*:1])C(=O)[*:2]; X74 = CC(C)(C(=O)*)c1cc(F)cc(C(F)(F)F)c1; γGlu = O=C(O)[C@H](CCC(=O)[*:2])N[*:1]; X27 = O=C1CC(C(=O)*)(c2ccccc2)CN1; AEEA = NCCOCCOCC(=O)O; Aib = CC(C)(N)C(=O)O; GABA = NCCCC(=O)O; βAla = NCCC(=O)O
Key:
Assay type in all cases: cell-based
GLP-1 receptor [1] = target: T1, GLP-1 receptor (Homo sapiens, UniProt P43220); assay: HitHunter cAMP assay, GLP-1 receptor; details: for EC50: CHO cells stably expressing human GLP-1 receptor, cAMP accumulation, 30 min, read-out: EC50 GLP-1R; for Emax: CHO cells, cAMP, normalized to maximum signal from GLP-1 (high) and DMSO (low), read-out: Emax GLP-1R
T1 sequence (P43220 24-463): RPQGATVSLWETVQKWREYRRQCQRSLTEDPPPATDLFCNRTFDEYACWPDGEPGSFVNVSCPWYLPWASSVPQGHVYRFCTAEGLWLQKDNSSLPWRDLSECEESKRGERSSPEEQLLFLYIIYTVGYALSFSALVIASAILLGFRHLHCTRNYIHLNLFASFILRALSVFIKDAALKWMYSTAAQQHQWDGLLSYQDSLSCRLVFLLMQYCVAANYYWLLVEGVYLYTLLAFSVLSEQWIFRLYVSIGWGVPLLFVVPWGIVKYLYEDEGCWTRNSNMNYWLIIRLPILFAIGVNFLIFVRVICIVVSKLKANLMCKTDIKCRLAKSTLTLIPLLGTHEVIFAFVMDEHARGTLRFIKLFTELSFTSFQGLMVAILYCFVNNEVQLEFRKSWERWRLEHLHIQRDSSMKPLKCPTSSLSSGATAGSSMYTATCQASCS

GIP receptor [2] = target: T2, GIP receptor (Homo sapiens, UniProt P48546); assay: HitHunter cAMP assay, GIP receptor; details: for EC50: CHO cells stably expressing GIP receptor, cAMP accumulation, 30 min, read-out: EC50 GIP-1R; for Emax: CHO cells, cAMP, normalized to maximum signal from GIP (high) and DMSO (low), read-out: Emax GIP-1R
T2 sequence (P48546 22-466): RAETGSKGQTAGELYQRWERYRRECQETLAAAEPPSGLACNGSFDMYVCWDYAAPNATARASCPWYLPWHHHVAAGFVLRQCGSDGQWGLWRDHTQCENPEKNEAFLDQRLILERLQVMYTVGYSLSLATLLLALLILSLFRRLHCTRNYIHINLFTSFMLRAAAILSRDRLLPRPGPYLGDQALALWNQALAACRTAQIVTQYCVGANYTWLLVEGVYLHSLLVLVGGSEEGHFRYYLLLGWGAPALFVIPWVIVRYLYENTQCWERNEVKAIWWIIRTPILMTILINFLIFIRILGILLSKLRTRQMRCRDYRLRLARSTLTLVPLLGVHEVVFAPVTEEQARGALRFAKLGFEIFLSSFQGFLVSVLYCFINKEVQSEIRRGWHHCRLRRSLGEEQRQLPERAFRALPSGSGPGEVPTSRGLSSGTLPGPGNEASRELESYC

GIP receptor [3] = target: T2, GIP receptor; assay: PathHunter β-arrestin assay, GIP receptor; parameters: host or cells: PathHunter CHO-K1 GIPR β-Arrestin Cell Line; details: β-arrestin-2 recruitment, PathHunter CHO-K1 GIPR β-Arrestin Cell Line, 90 min at 37° C.; normalized to GIP; read-out: GIPR β Arrestin EC50
GLP-1 receptor [4] = target: T1, GLP-1 receptor; assay: PathHunter β-arrestin assay, GLP-1 receptor; parameters: host or cells: PathHunter CHO-K1 GLP1R β-Arrestin Cell Line; details: β-arrestin-2 recruitment, PathHunter CHO-K1 GLP1R β-Arrestin Cell Line, 90 min at 37° C.; normalized to GLP-1; read-out: GLP-1R β Arrestin EC50

Work on `CC[C@H](C)[C@H](NC(=O)[C@H](CC(C)C)NC(=O)[C@H](Cc1c[nH]c2ccccc12)NC(=O)[C@H](CCC(N)=O)NC(=O)[C@@H](NC(=O)[C@H](Cc1ccccc1)NC(=O)[C@H](C)NC(=O)[C@H](CCCCNC(=O)COCCOCCNC(=O)COCCOCCNC(=O)CC[C@H](NC(=O)CCCCCCCCCCCCCCCCCCC(=O)O)C(=O)O)NC(=O)[C@H](CCC(N)=O)NC(=O)[C@H](C)NC(=O)[C@@H](NC(=O)[C@H](CCCCN)NC(=O)[C@H](CC(=O)O)NC(=O)[C@H](CC(C)C)NC(=O)C(C)(C)NC(=O)[C@@H](NC(=O)[C@H](CO)NC(=O)[C@H](Cc1ccc(O)cc1)NC(=O)[C@H](CC(=O)O)NC(=O)[C@H](CO)NC(=O)[C@@H](NC(=O)[C@H](Cc1ccccc1)NC(=O)[C@@H](NC(=O)CNC(=O)[C@H](CCC(=O)O)NC(=O)CCNC(=O)C(C)(C)c1cc(F)cc(C(F)(F)F)c1)[C@@H](C)O)[C@@H](C)O)[C@@H](C)CC)[C@@H](C)CC)C(C)C)C(=O)N[C@@H](C)C(=O)NCC(=O)NCC(=O)N1CCC[C@H]1C(=O)N[C@@H](CO)C(=O)N[C@@H](CO)C(=O)NCC(=O)N[C@@H](C)C(=O)N1CCC[C@H]1C(=O)N1CCC[C@H]1C(=O)N1CCC[C@H]1C(=O)N[C@@H](CO)C(N)=O` [Compound 119] ({X74-βAla}-EGTFTSDYSI[Aib]LDKIAQK([AEEA-AEEA-γGlu-C20 diacid])AFVQWLIAGGPSSGAPPPS-NH2) yielded an EC50 (GLP-1 receptor [1]) of 0.001 to 0.01 µM, an Emax (GLP-1 receptor [1]) of 102% and an EC50 (GIP receptor [2]) of 0.01 to 0.1 µM. For the same molecule, the Emax (GIP receptor [2]) was 99%, the EC50 (GIP receptor [3]) was greater than 1 µM and the EC50 (GLP-1 receptor [4]) was greater than 1 µM.

`CC[C@H](C)[C@H](NC(=O)[C@H](CC(C)C)NC(=O)[C@H](Cc1c[nH]c2ccccc12)NC(=O)[C@H](CCC(N)=O)NC(=O)[C@@H](NC(=O)[C@H](Cc1ccccc1)NC(=O)[C@H](C)NC(=O)[C@H](CCCCNC(=O)COCCOCCNC(=O)COCCOCCNC(=O)CC[C@H](NC(=O)CCCCCCCCCCCCCCCCCCC(=O)O)C(=O)O)NC(=O)[C@H](CCC(N)=O)NC(=O)[C@H](C)NC(=O)[C@@H](NC(=O)[C@H](CCCCN)NC(=O)[C@H](CC(=O)O)NC(=O)[C@H](CC(C)C)NC(=O)C(C)(C)NC(=O)[C@@H](NC(=O)[C@H](CO)NC(=O)[C@H](Cc1ccc(O)cc1)NC(=O)[C@H](CC(=O)O)NC(=O)[C@H](CO)NC(=O)[C@@H](NC(=O)[C@H](Cc1ccccc1)NC(=O)[C@@H](NC(=O)CNC(=O)[C@@H](CC(=O)O)NC(=O)CCCNC(=O)C(C)(C)c1cc(F)cc(C#N)c1)[C@@H](C)O)[C@@H](C)O)[C@@H](C)CC)[C@@H](C)CC)C(C)C)C(=O)N[C@@H](C)C(=O)NCC(=O)NCC(=O)N1CCC[C@H]1C(=O)N[C@@H](CO)C(=O)N[C@@H](CO)C(=O)NCC(=O)N[C@@H](C)C(=O)N1CCC[C@H]1C(=O)N1CCC[C@H]1C(=O)N1CCC[C@H]1C(=O)N[C@@H](CO)C(N)=O` [Compound 120] ({Isobutyryl(2-(3-CN-5-F-Ph))-GABA}-[dD]GTFTSDYSI[Aib]LDKIAQK([AEEA-AEEA-γGlu-C20 diacid])AFVQWLIAGGPSSGAPPPS-NH2) was tested, and the EC50 (GLP-1 receptor [1]) was 0.01 to 0.1 µM, the Emax (GLP-1 receptor [1]) was 104% and the EC50 (GIP receptor [2]) was 0.1 to 1 µM. The Emax (GIP receptor [2]) was 40%, the EC50 (GIP receptor [3]) was greater than 1 µM and the EC50 (GLP-1 receptor [4]) was greater than 1 µM.

`CC[C@H](C)[C@H](NC(=O)[C@H](CC(C)C)NC(=O)[C@H](Cc1c[nH]c2ccccc12)NC(=O)[C@H](CCC(N)=O)NC(=O)[C@@H](NC(=O)[C@H](Cc1ccccc1)NC(=O)[C@H](C)NC(=O)[C@H](CCCCNC(=O)COCCOCCNC(=O)COCCOCCNC(=O)CC[C@H](NC(=O)CCCCCCCCCCCCCCCCCCC(=O)O)C(=O)O)NC(=O)[C@H](CCC(N)=O)NC(=O)[C@H](C)NC(=O)[C@@H](NC(=O)[C@H](CCCCN)NC(=O)[C@H](CC(=O)O)NC(=O)[C@H](CC(C)C)NC(=O)C(C)(C)NC(=O)[C@@H](NC(=O)[C@H](CO)NC(=O)[C@H](Cc1ccc(O)cc1)NC(=O)[C@H](CC(=O)O)NC(=O)[C@H](CO)NC(=O)[C@@H](NC(=O)[C@H](Cc1ccccc1)NC(=O)[C@@H](NC(=O)CNC(=O)[C@@H](CC(=O)O)NC(=O)CCCNC(=O)C1(c2ccccc2)CNC(=O)C1)[C@@H](C)O)[C@@H](C)O)[C@@H](C)CC)[C@@H](C)CC)C(C)C)C(=O)N[C@@H](C)C(=O)NCC(=O)NCC(=O)N1CCC[C@H]1C(=O)N[C@@H](CO)C(=O)N[C@@H](CO)C(=O)NCC(=O)N[C@@H](C)C(=O)N1CCC[C@H]1C(=O)N1CCC[C@H]1C(=O)N1CCC[C@H]1C(=O)N[C@@H](CO)C(N)=O` (stereo partly drawn) [Compound 121] ({X27-GABA}-[dD]GTFTSDYSI[Aib]LDKIAQK([AEEA-AEEA-γGlu-C20 diacid])AFVQWLIAGGPSSGAPPPS-NH2) was tested, and the EC50 (GLP-1 receptor [1]) was 0.01 to 0.1 µM, the Emax (GLP-1 receptor [1]) was 72% and the EC50 (GIP receptor [2]) was greater than 1 µM. For the same molecule, the Emax (GIP receptor [2]) was 76%, the EC50 (GIP receptor [3]) was less than 1 µM and the EC50 (GLP-1 receptor [4]) was greater than 1 µM.

`CC[C@H](C)[C@H](NC(=O)[C@H](CC(C)C)NC(=O)[C@H](Cc1c[nH]c2ccccc12)NC(=O)[C@H](CCC(N)=O)NC(=O)[C@@H](NC(=O)[C@H](Cc1ccccc1)NC(=O)[C@H](C)NC(=O)[C@H](CCCCNC(=O)COCCOCCNC(=O)COCCOCCNC(=O)CC[C@H](NC(=O)CCCCCCCCCCCCCCCCCCC(=O)O)C(=O)O)NC(=O)[C@H](CCC(N)=O)NC(=O)[C@H](C)NC(=O)[C@@H](NC(=O)[C@H](CCCCN)NC(=O)[C@H](CC(=O)O)NC(=O)[C@H](CC(C)C)NC(=O)C(C)(C)NC(=O)[C@@H](NC(=O)[C@H](CO)NC(=O)[C@H](Cc1ccc(O)cc1)NC(=O)[C@H](CC(=O)O)NC(=O)[C@H](CO)NC(=O)[C@@H](NC(=O)[C@H](Cc1ccccc1)NC(=O)[C@@H](NC(=O)CNC(=O)[C@@H](CC(=O)O)NC(=O)CCNC(=O)C1(c2ccccc2)CNC(=O)C1)[C@@H](C)O)[C@@H](C)O)[C@@H](C)CC)[C@@H](C)CC)C(C)C)C(=O)N[C@@H](C)C(=O)NCC(=O)NCC(=O)N1CCC[C@H]1C(=O)N[C@@H](CO)C(=O)N[C@@H](CO)C(=O)NCC(=O)N[C@@H](C)C(=O)N1CCC[C@H]1C(=O)N1CCC[C@H]1C(=O)N1CCC[C@H]1C(=O)N[C@@H](CO)C(N)=O` (stereo partly drawn) [Compound 122] ({X27-βAla}-[dD]GTFTSDYSI[Aib]LDKIAQK([AEEA-AEEA-γGlu-C20 diacid])AFVQWLIAGGPSSGAPPPS-NH2) gave an EC50 (GLP-1 receptor [1]) of 0.001 to 0.01 µM, an Emax (GLP-1 receptor [1]) of 100% and an EC50 (GIP receptor [2]) of 0.01 to 0.1 µM. It also gave an Emax (GIP receptor [2]) of 92%, an EC50 (GIP receptor [3]) of less than 1 µM and an EC50 (GLP-1 receptor [4]) greater than 1 µM.

With `CC[C@H](C)[C@H](NC(=O)[C@H](CC(C)C)NC(=O)[C@H](Cc1c[nH]c2ccccc12)NC(=O)[C@H](CCC(N)=O)NC(=O)[C@@H](NC(=O)[C@H](Cc1ccccc1)NC(=O)[C@H](C)NC(=O)[C@H](CCCCNC(=O)COCCOCCNC(=O)COCCOCCNC(=O)CC[C@H](NC(=O)CCCCCCCCCCCCCCCCCCC(=O)O)C(=O)O)NC(=O)[C@H](CCC(N)=O)NC(=O)[C@H](C)NC(=O)[C@@H](NC(=O)[C@H](CCCCN)NC(=O)[C@H](CC(=O)O)NC(=O)[C@H](CC(C)C)NC(=O)C(C)(C)NC(=O)[C@@H](NC(=O)[C@H](CO)NC(=O)[C@H](Cc1ccc(O)cc1)NC(=O)[C@H](CC(=O)O)NC(=O)[C@H](CO)NC(=O)[C@@H](NC(=O)[C@H](Cc1ccccc1)NC(=O)[C@@H](NC(=O)CNC(=O)[C@](C)(Cc1nn[nH]n1)NC(=O)CCNC(=O)C(C)(C)c1cc(F)cc(C#N)c1)[C@@H](C)O)[C@@H](C)O)[C@@H](C)CC)[C@@H](C)CC)C(C)C)C(=O)N[C@@H](C)C(=O)NCC(=O)NCC(=O)N1CCC[C@H]1C(=O)N[C@@H](CO)C(=O)N[C@@H](CO)C(=O)NCC(=O)N[C@@H](C)C(=O)N1CCC[C@H]1C(=O)N1CCC[C@H]1C(=O)N1CCC[C@H]1C(=O)N[C@@H](CO)C(N)=O` [Compound 126] ({Isobutyryl(2-(3-CN-5-F-Ph))-βAla}-[X75]GTFTSDYSI[Aib]LDKIAQK([AEEA-AEEA-γGlu-C20 diacid])AFVQWLIAGGPSSGAPPPS-NH2) the EC50 (GLP-1 receptor [1]) was 0.1 to 1 µM, the Emax (GLP-1 receptor [1]) was 59% and the EC50 (GIP receptor [2]) was 0.1 to 1 µM. It also gave an Emax (GIP receptor [2]) of 97%, an EC50 (GIP receptor [3]) greater than 1 µM and an EC50 (GLP-1 receptor [4]) greater than 1 µM.

From patent publication US12281149B2, “Modulators of G-protein coupled receptors” (priority 2021, dated 2025)
